The subject of assay [1] is NCI's human cancer cell lines. Nature of the assay: NCI panel growth inhibition, whole panel summary. In kind it is cell-based. To be noted: in vitro. From the text: Comparison of anticancer activities of the 1,3-substituted adamantane derivatives, 1,3-bis(4-aminophenyl)adamantane (1,3-DPANH2), 1,3-bis(4-(4-aminophenoxy)phenyl)adamantane (1,3-DPAONH2), 1,3-bis(4-(4-amino-3-hydroxy)phenyl)adamantane (1,3-DPA/OH/NH2) and 1,3-bis(4-(4-amino-2-trifluoromethylphenoxy)phenyl)adamantane (1,3-DPA/CF3/NH2) as shown in FIG. 1 were synthesized in the present invention. Those compounds were submitted to the National Cancer Institute for anticancer assay in culture against a standard panel of cell lines. […] To further confirm that the different substituents (CF3 and OH) on the phenyl ring of 1,3-DPAONH2 affect the growth inhibition of cancer cells. […] The transformations of 1,3-DPAONH2 to 1,3-DPA/OH/NH2 led to a remarked enhancement of anticancer activity toward all the tested cancer lines. The role of the OH group at the ortho position of the NH2 on growth inhibition is remarkable. In addition, one compound (1,3-DPA/OH/NH2) was confirmed to have an IC50 of <1 μM against one of the cells (BT-549 breast carcinoma). Comparison of anticancer activities of 1,3-substituted diaminophenyladamantane derivatives, the following order of potency against the tested cancer lines was observed: 1,3-DPA/OH/NH2>1,3-DPAONH2>1,3-DPANH2>1,3-DPA/CF3/NH2. […]

The next assay deals with SF-295. The experiment in a line: NCI panel growth inhibition, sulforhodamine B. The assay is classed as cell-based, human. Particulars: Homo sapiens, SF-295, SF-295, CNS cancer; drug for last 48 h of 72 h. From the text:
(§1) Comparison of anticancer activities of the 1,3-substituted adamantane derivatives, 1,3-bis(4-aminophenyl)adamantane (1,3-DPANH2), 1,3-bis(4-(4-aminophenoxy)phenyl)adamantane (1,3-DPAONH2), 1,3-bis(4-(4-amino-3-hydroxy)phenyl)adamantane (1,3-DPA/OH/NH2) and 1,3-bis(4-(4-amino-2-trifluoromethylphenoxy)phenyl)adamantane (1,3-DPA/CF3/NH2) as shown in FIG. 1 were synthesized in the present invention. Those compounds were submitted to the National Cancer Institute for anticancer assay in culture against a standard panel of cell lines. […] To further confirm that the different substituents (CF3 and OH) on the phenyl ring of 1,3-DPAONH2 affect the growth inhibition of cancer cells. […] The transformations of 1,3-DPAONH2 to 1,3-DPA/OH/NH2 led to a remarked enhancement of anticancer activity toward all the tested cancer lines. The role of the OH group at the ortho position of the NH2 on growth inhibition is remarkable. In addition, one compound (1,3-DPA/OH/NH2) was confirmed to have an IC50 of <1 μM against one of the cells (BT-549 breast carcinoma). Comparison of anticancer activities of 1,3-substituted diaminophenyladamantane derivatives, the following order of potency against the tested cancer lines was observed: 1,3-DPA/OH/NH2>1,3-DPAONH2>1,3-DPANH2>1,3-DPA/CF3/NH2.

The next assay relates to BT-549. The experiment in a line: NCI panel growth inhibition, sulforhodamine B. The assay is classed as cell-based, human. To be noted: Homo sapiens, BT-549, BT-549, Breast cancer; drug for last 48 h of 72 h.
Description: as §1

Another assay has as its system NCI/ADR-RES. The experiment in a line: NCI panel growth inhibition, sulforhodamine B. The assay is classed as cell-based, human. Particulars: Homo sapiens, Breast cancer, drug for last 48 h of 72 h.
Description: as §1

The test system of the next assay is NCI-H322M. The experiment in a line: NCI panel growth inhibition, sulforhodamine B. Particulars: Homo sapiens, NSCLC, drug for last 48 h of 72 h. The assay is classed as cell-based.
The next assay concerns HCT-15. Nature of the assay: NCI panel growth inhibition, sulforhodamine B. In kind it is cell-based. To be noted: Homo sapiens; HCT-15, Colon cancer; drug for last 48 h of 72 h.
For another assay, the system named is RXF-393. The experiment in a line: NCI panel growth inhibition, sulforhodamine B. The assay is classed as cell-based. To be noted: Homo sapiens; RXF-393, Renal cancer; drug for last 48 h of 72 h.
For another assay, the system named is OVCAR-3. Nature of the assay: NCI panel growth inhibition, sulforhodamine B. In kind it is cell-based. Particulars: Homo sapiens; OVCAR-3, Ovarian cancer; drug for last 48 h of 72 h.
In the next assay the test system is T-47D. The experiment in a line: NCI panel growth inhibition, sulforhodamine B. The assay is classed as cell-based. Particulars: Homo sapiens, T47D, Breast cancer, drug for last 48 h of 72 h.
The next assay relates to MOLT-4. Nature of the assay: NCI panel growth inhibition, sulforhodamine B. In kind it is cell-based. Particulars: Homo sapiens; MOLT-4, Leukemia; drug for last 48 h of 72 h.
A further assay relates to HOP-62. Nature of the assay: NCI panel growth inhibition, sulforhodamine B. In kind it is cell-based. Particulars: Homo sapiens; HOP-62, NSCLC; drug for last 48 h of 72 h.
The next assay deals with UO-31. The experiment in a line: NCI panel growth inhibition, sulforhodamine B. The assay is classed as cell-based. To be noted: Homo sapiens; UO-31, Renal cancer; drug for last 48 h of 72 h.
A further assay concerns OVCAR-5. Nature of the assay: NCI panel growth inhibition, sulforhodamine B. The assay is classed as cell-based. To be noted: Homo sapiens; OVCAR-5, Ovarian cancer; drug for last 48 h of 72 h.
The next assay has as its system DU-145. Nature of the assay: NCI panel growth inhibition, sulforhodamine B. In kind it is cell-based. To be noted: Homo sapiens; DU-145, Prostate cancer; drug for last 48 h of 72 h.
The subject of the next assay is RPMI-8226. The experiment in a line: NCI panel growth inhibition, sulforhodamine B. The assay is classed as cell-based. Particulars: Homo sapiens; RPMI-8226, Leukemia; drug for last 48 h of 72 h.
Another assay deals with SK-MEL-5. The experiment in a line: NCI panel growth inhibition, sulforhodamine B. In kind it is cell-based. Particulars: Homo sapiens; SK-MEL-5, Melanoma; drug for last 48 h of 72 h.
Another assay has as its system SK-MEL-2. Nature of the assay: NCI panel growth inhibition, sulforhodamine B. In kind it is cell-based. Particulars: Homo sapiens; SK-MEL-2, Melanoma; drug for last 48 h of 72 h.
The test system of another assay is LOX IMVI. The experiment in a line: NCI panel growth inhibition, sulforhodamine B. In kind it is cell-based. Particulars: Homo sapiens, Melanoma, drug for last 48 h of 72 h.
The next assay has as its system U251. Nature of the assay: NCI panel growth inhibition, sulforhodamine B. In kind it is cell-based. To be noted: Homo sapiens, U-251; U251, CNS cancer; drug for last 48 h of 72 h.
The test system of a further assay is HS 578T. The experiment in a line: NCI panel growth inhibition, sulforhodamine B. The assay is classed as cell-based. To be noted: Homo sapiens, Breast cancer, drug for last 48 h of 72 h.
The next assay concerns MALME-3M. The experiment in a line: NCI panel growth inhibition, sulforhodamine B. The assay is classed as cell-based. Particulars: Homo sapiens, Melanoma, drug for last 48 h of 72 h.
The subject of another assay is HT29. Nature of the assay: NCI panel growth inhibition, sulforhodamine B. In kind it is cell-based. Particulars: Homo sapiens, HT-29; HT29, Colon cancer; drug for last 48 h of 72 h.
The next assay concerns MDA-MB-435. Nature of the assay: NCI panel growth inhibition, sulforhodamine B. The assay is classed as cell-based. Particulars: Homo sapiens; MDA-MB-435, Breast cancer; drug for last 48 h of 72 h.

On to `Nc1ccc(Oc2ccc(C3(c4ccc(Oc5ccc(N)c(O)c5)cc4)C4CC5CC(C4)CC3C5)cc2)cc1O` [DPA, 2,2-bis(4-(4-amino-3-hydroxyphenoxy)phenyl)adamantane], for which the “growth inhibitory activity against the tested cancer cell lines (in words)” value in assay [1] is listed as “strong growth inhibitory activities”. In addition, the IC50 (commonly the concentration that inhibits the measured activity by half) turned out to be 2570 nM in the assay on SF-295; 2050 nM in the assay with BT-549; 2330 nM in the assay on NCI/ADR-RES; 1410 nM in the assay on NCI-H322M; 1670 nM in the assay on HCT-15; 1820 nM with RXF-393. The IC50 with OVCAR-3 stood at 1560 nM; in the assay on T-47D, 4.13 µM; in the assay on MOLT-4, 1450 nM; in the assay with HOP-62, 2110 nM; in the assay with UO-31 it was 1850 nM; in the assay with OVCAR-5 it was 2080 nM. The IC50 is 2060 nM in the assay on DU-145; 1920 nM in the assay on RPMI-8226; 1560 nM with SK-MEL-5; 1690 nM in the assay with SK-MEL-2; 1690 nM with LOX IMVI; 1700 nM in the assay on U251. The IC50 in the assay on HS 578T stood at 2350 nM; with MALME-3M it was 2020 nM; in the assay with HT29, 1810 nM; in the assay on MDA-MB-435, 2300 nM.

(Values after patent US7365231B2, “Compound with antitumor activity and preparation method therefor” (National Taiwan University of Science & Technology, priority 2005, dated 2008).)
